The target of one assay is T1, METTL3/14 (Homo sapiens, UniProt Q86U44).
T1 construct: human METTL3 (UniProt: Q86U44, aa 252–580); Strep-tag II (C); made in house; host or cells: E. coli BL21 (DE3)
Kind of assay: Fluorescence polarization (FP) displacement assay with METTL3/14. Type of assay: binding. As to the method:
(§1) Fluorescence polarization (FP) displacement assays with METTL3/14 (ref. [36]) and VCB[38–40] were performed following previous protocols with slight adaptations. All experiments were conducted in black Greiner 96-well half-area plates using a Tecan Spark 10 M plate reader, equipped with polarization filters coupled to a monochromator setup (λex = 480 nm, λem = 530 nm). Reaction mixtures for METTL3/14 contained 300 nM recombinant enzyme, 20 nM FAM-labelled displacement tracer (STM-FL[36]), and the test compounds at varying concentrations in 25 mM Tris HCl, pH 7.5, 100 mM NaCl, and 10% DMSO. For VCB, the mixtures contained 40 nM recombinant enzyme, 10 nM FAM-labelled probe (FAM-DEALAHyp[…], Tocris Bioscience), and the tested compounds, at varying concentrations, in 50 mM Tris, pH 7.5, 200 mM NaCl, 2 mM DTT, and 10% DMSO. […] All measurements were performed at least as technical triplicates. Polarization values (mP) were determined from polarization-specific parallel and orthogonal fluorescence intensities using the Tecan in-built calculation routine. Using GraphPad Prism 8.0.1, the FP values were normalized, and KD values were calculated using a 4-parameter Hill equation: y(% probe bound) = bottom + ([ligand]slope) × (top–bottom)/([ligand]slope + KD slope).

The target of assay [1] is T2, VCB (VHL, elongin B, elongin C) (Homo sapiens, UniProt P40337).
T2 construct: VHL (UniProt: P40337, aa 1–213); His6 (N); made in house; host or cells: E. coli BL21 (DE3)
The experiment in a line: FP displacement assay with VCB (binary and ternary KD, cooperativity). It counts as binding. Here is the method:
as §1

For the next assay, the target named is T3, human VHL (Homo sapiens, UniProt P40337).
T3 construct: purchased Revvity
The experiment in a line: HTRF human VHL binding kit. Here is the method: PROTACs binding to VHL or CRBN were measured using a homogeneous time-resolved fluorescence (HTRF) human VHL or CRBN binding kit (Revvity). Samples were prepared according to the manufacturer's protocol, with compounds diluted in the provided diluent while maintaining a constant DMSO concentration with a final concentration of 1.25%. For the ternary KD determinations, METTL3/14 was added at 4 μM, corresponding to approximately a 20- to 40-fold excess of binary KD, while all other component concentrations were kept as specified in the protocol. Measurements were performed in triplicate using a Tecan Spark 10 M plate reader, recording donor and acceptor emissions at λem_donor = 620 nm and λem_acceptor = 665 nm, respectively, following excitation of the HTRF donor at λex = 320 nm. The acceptor-to-donor emission ratio was calculated as ratio = signal 665 nm/signal 620 nm. Using GraphPad Prism 8.0.1, the fluorescence values were normalized, and KD values were calculated as specified above.

The next assay deals with T4, METTL3 (Homo sapiens, UniProt Q86U44).
T4 construct: endogenous in cells; host or cells: MOLM-13
Kind of assay: Immunoblotting of METTL3 protein levels in MOLM-13 cells. Type of assay: cell-based. As to the method:
MOLM-13 were seeded in 12-well cell culture plates at a density of 1 × 10^6 cells per mL and treated with DMSO (final: 0.1%) or different concentrations of PROTAC degraders in DMSO at the indicated times. Treatments were conducted in biological triplicate with varying passages of MOLM-13 cells. The cells were harvested by centrifugation at 500g for 5 min and washed with PBS. The cells were lysed with RIPA lysis buffer with the addition of protease inhibitor (1× cOMPLETE), and insoluble cellular parts were separated by centrifugation (12 000g for 10 min), subsequently, the supernatant was boiled with 1× Laemmli sample buffer (Carl Roth) for 5 min at 95 °C. Proteins were separated by SDS–PAGE on 4–20% Criterion™ TGX™ Precast Protein Gels (Bio-Rad) and transferred to Amersham™ Protean® 0.45 μm nitrocellulose membrane (Cytiva) using semi-dry transfer (25 V, 1 A, Towbin buffer). The membrane was blocked with 5% milk (Carl Roth) in TBST buffer and incubated with the following primary antibodies: Anti-METTL3 (1 : 1000, Abcam, ab195352), anti-METTL14 (1 : 1000, Abcam, ab220030), anti-Bcl2 (1 : 1000, Cell Signaling Technology [CST], EPR16891), anti-Mcl-1 (1 : 1000, CST, 5453 T), anti-Bcl-XL (1 : 1000, CST, 2764 T), anti-vinculin (1 : 1000, CST, 13901) or anti-GAPDH (1 : 5000, CST, D17C4) overnight at 4 °C. Subsequently, the membrane was incubated for 1 h at RT with secondary antibodies: anti-rabbit (1 : 2000, VWR, NA934) or anti-mouse (1 : 2000, VWR, 102646-160). The protein bands were detected via chemiluminescence using Pierce™ ECL western blotting substrate and a Fusion FX imaging system (Vilber). The ImageLab software (Bio-Rad) was used for band quantification.

“And” between values parts separate entries of the source, which are not always exact repeats. Identical values can stand only once. Like-named read-outs stand apart in the source and are kept apart here.

The source of these data is publication PMC12207533, “Structure-guided design of a methyltransferase-like 3 (METTL3) proteolysis targeting chimera (PROTAC) incorporating an indole–nicotinamide chemotype” (RSC Medicinal Chemistry, 2025).

T2 sequence (P40337 whole entry, the tested form may be a part): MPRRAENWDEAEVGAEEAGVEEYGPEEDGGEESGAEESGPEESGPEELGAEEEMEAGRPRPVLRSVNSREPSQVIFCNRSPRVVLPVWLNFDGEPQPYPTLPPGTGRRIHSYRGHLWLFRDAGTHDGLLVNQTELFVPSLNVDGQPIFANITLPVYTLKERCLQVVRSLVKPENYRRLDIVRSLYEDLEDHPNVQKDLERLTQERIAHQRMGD
T2 sequence (Q15370 whole entry partner, the tested form may be a part): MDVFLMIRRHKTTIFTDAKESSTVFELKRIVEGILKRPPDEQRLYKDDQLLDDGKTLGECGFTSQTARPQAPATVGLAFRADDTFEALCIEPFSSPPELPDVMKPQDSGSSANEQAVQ
T2 sequence (Q15369 17-112 partner limits assumed): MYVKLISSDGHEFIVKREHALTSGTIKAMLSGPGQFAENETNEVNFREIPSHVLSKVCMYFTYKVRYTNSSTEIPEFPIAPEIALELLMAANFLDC
T4 sequence (Q86U44 whole entry): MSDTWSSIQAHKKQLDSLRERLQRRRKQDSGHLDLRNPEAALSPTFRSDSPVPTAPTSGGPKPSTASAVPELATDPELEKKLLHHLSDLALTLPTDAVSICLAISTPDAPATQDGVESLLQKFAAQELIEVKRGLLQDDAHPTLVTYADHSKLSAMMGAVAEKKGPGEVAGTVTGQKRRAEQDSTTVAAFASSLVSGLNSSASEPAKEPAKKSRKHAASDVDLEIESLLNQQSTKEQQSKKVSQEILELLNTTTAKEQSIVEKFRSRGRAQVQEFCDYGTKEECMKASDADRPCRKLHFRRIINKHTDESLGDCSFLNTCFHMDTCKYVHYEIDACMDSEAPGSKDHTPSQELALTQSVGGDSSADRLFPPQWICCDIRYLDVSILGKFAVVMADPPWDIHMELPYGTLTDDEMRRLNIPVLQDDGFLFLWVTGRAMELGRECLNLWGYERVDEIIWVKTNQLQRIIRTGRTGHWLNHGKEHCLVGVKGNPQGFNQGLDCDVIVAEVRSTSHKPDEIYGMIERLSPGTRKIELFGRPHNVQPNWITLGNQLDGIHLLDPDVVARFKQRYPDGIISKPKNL
T3 sequence (P40337 whole entry): as the sequence (P40337 whole entry, the tested form may be a part) above
T3 sequence (Q15370 whole entry partner): as the sequence (Q15370 whole entry partner, the tested form may be a part) above
T3 sequence (Q15369 whole entry partner): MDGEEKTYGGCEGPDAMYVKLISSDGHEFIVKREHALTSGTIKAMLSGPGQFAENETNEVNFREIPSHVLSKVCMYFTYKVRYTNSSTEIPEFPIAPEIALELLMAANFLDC
T1 sequence (Q86U44 252-580): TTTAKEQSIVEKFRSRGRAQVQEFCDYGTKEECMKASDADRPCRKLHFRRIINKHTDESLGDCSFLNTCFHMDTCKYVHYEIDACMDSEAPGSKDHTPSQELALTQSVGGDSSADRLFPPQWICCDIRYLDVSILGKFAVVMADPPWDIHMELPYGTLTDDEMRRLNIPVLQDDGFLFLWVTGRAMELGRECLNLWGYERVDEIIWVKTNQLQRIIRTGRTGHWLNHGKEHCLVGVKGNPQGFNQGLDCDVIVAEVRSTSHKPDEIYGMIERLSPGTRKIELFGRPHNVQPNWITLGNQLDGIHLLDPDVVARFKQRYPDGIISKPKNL
T1 sequence (Q9HCE5 108-444 partner limits assumed): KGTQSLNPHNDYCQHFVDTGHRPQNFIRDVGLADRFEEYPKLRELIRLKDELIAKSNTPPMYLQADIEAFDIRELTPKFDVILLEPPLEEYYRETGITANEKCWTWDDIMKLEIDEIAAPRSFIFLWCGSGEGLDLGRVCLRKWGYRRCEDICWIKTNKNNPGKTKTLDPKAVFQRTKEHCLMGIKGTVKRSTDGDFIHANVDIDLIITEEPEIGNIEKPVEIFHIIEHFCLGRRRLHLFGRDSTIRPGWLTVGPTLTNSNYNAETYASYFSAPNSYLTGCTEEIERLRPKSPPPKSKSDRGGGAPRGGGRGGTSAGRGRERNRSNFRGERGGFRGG

For the molecule `Cc1ncsc1-c1ccc(CNC(=O)[C@@H]2C[C@@H](O)CN2C(=O)[C@@H](NC(=O)CCc2ccc(-c3ccc(COc4cncc(C(=O)NCc5ccc6cc(CN7CCC(C)(C)CC7)[nH]c6c5)c4)cc3)cc2)C(C)(C)C)cc1` [compound 41], the Kd on METTL3/14 is 159 ± 26 nM; in assay [1] (absence of METTL3, read-out: KD binary (VHL)) it was 363 nM; in assay [1] (presence of METTL3/14 (12 μM), read-out: KD ternary (VHL)), 79.9 nM and 77 nM; on human VHL (HTRF Human VHL Binding Kit, binary, read-out: KD E3-ligases (VHL, HTRF)), 740 ± 113 nM. Moreover, at human VHL (VHL affinity in presence and absence of METTL3/14 (4 μM)), the “cooperativity (HTRF)” value is “positive cooperativity”. At METTL3 (2 μM, time course, MOLM-13), the “time for which maximal METTL3 degradation is maintained” value is “at least 48 h”. In addition, the “time of maximal METTL3 degradation effect” value on METTL3 (2 μM, time course, MOLM-13) is 24 h. In addition, the METTL3 reduction entry on METTL3 (2 μM, within the first 6 h of treatment, MOLM-13) was “over 50%”. For the same molecule, the “METTL3 degradation (Western blot)” value at METTL3 (MOLM-13, 1 μM, 16 h) was “significant degradation”. In addition, the “concentration of hook effect (METTL3 degradation decreased)” value on METTL3 (MOLM-13, 16 h) was more than 5 µM. The DC50 at METTL3 (MOLM-13, 16 h treatment, read-out: DC50 (METTL3 degradation)) was found to be 430 nM. The “METTL3 degradation on co-treatment with MLN4924” value at METTL3 (MOLM-13, MLN4924 1 μM) was “suppressed METTL3 degradation”. The same molecule gave a Dmax at 2.5 µM at METTL3 (MOLM-13, MOLM-13, 16 h, maximal degradation occurred at 2.5 μM) of 95%. Moreover, the “METTL3 degradation on co-treatment with STM2457” value at METTL3 (MOLM-13, STM2457 20 μM) is reported as “inhibited degradation”.
